This note sets out measurements from patent US11530181B2, “IL-6 inhibitors and methods of treatment” (University of Florida Research Foundation, Incorporated, priority 2018, dated 2022).

For series [1], the system named is BxPC-3 pancreatic cancer cell line. The series is described as follows: MTT cell viability assay, BxPC-3. The format is cell-based, human. The note with it: for IC50: Homo sapiens; for inhibitory effect compared to parent compound LLM4: BxPC-3, 25 μM, 48 hours. On the procedure:
(§1) Human breast cancer cell lines MCF7, MDA-MB-231 and SUM159 were maintained in Dulbecco's modified Eagle medium (DMEM). Human pancreatic cancer cell line BxPC-3 was maintained in RPMI 1640 medium. Human pancreatic cancer cell line Capan-1 was maintained in Iscove's Modified Dulbecco's Medium (IMEM). All media were supplemented with 10% FBS and 1% penicillin/streptomycin, and cells were incubated in a humidified 37° C. incubator with 5% CO2. PE/CA-PJ49 cell line was purchased from external sources and maintained according to manufacturer's protocol.
(§2) Cell viability was evaluated by using the MTT assay in triple replicates in one experiment and repeated for three times. Cancer cells were seeded in 96-well plates at a density of 3,000 cells per well. The cells were incubated at 37° C. for a period of 24 hours. Escalating concentrations of IL-6/gp130 inhibitors were added in triplicate to the plates in the presence of 10% FBS. After incubation for 48 or 72 hours, a stock solution of MTT (0.5 mg/ml) was then added to each well containing the treated cells, followed by incubation at 37° C. for 3 h. After removal of medium, the MTT dye was dissolved with spectrophotometric grade DMSO and the absorbance was read at 570 nm. The IC50 value is determined by interpolation based on the absorbance value halfway between positive and negative controls. In the experiment of LLM4 showing higher efficacy in cancer cells with higher levels of IL-6, instead of using medium with 10% FBS, DMEM with 0% FBS was used in order to eliminate the influence of trace amounts of growth factors and cytokines in FBS.
In general terms: Tetrazolium assays rely on reduction of a dye to a coloured formazan, in cell work by metabolically active cells.

The subject of series [2] is SUM159 breast cancer cell line. Kind of series: MTT cell viability assay, SUM159. The format is cell-based, human. The settings on record: for IC50: Homo sapiens; for inhibitory effect compared to parent compound LLM4: SUM159, 25 μM, 48 hours. As for the experimental part: as §1
as §2, with “controls.” for “controls. In the experiment of LLM4 showing higher efficacy in cancer cells with higher levels of IL-6, instead of using medium with 10% FBS, DMEM with 0% FBS was used in order to eliminate the influence of trace amounts of growth factors and cytokines in FBS.”

In series [3] the test system is multiple myeloma cell line U266. The series is described as follows: Cell viability assay, U266. The format is cell-based, human. The settings on record: for IC50: Homo sapiens, U-266, U266, 72 h; for inhibitory effect compared to parent compound LLM4: U266, 25 μM, 48 and 72 hours. On the procedure:
as §2
It was reported in multiple myeloma cell line U266 that IL-6 is also elevated and of great importance for cancer progression [Jernberg W, Pettersson M, Carlsson M, et al. Increase in interleukin 6 (IL-6) and IL-6 receptor expression in a human multiple myeloma cell line, U-266, during long-term in vitro culture and the development of a possible autocrine IL-6 loop 1. Leukemia. 1992, 4, 310-318]. These novel IL-6/gp130 inhibitors were tested in U266 cells at a concentration of 25 μM for an incubation time of 48 and 72 hours. MDL16 and LLM4 were used as control compounds.

The subject of series [4] is IL-6 induced STAT3 phosphorylation. The series is described as follows: Western blot, IL-6 induced STAT3 phosphorylation in MCF7. The format is cell-based, human. As for the experimental part: Cells were harvested and lysed in cold radioimmunoprecipitation assay (RIPA) lysis buffer containing proteasome inhibitor cocktail and phosphatase inhibitor cocktail. The protein concentrations were determined using the BCA Protein Assay kit. After adding the loading buffer and boiling at 95° C. for 10 minutes, equivalent amounts of proteins were loaded on and separated by SDS-PAGE, and then were transferred to PVDF membranes. Membranes were probed with primary antibodies (1:1000) against phospho-STAT3 (Tyr705), STAT3, phospho-STAT1 (Tyr701), STAT1, phospho-STAT6 (Tyr 641), STAT6, and GAPDH, respectively, and horseradish peroxidase (HRP)-conjugated secondary antibody (1:10000) (Cell Signaling Technology, Beverly, Mass.). Membranes were analyzed using Enhanced Chemiluminescence Plus reagents and either scanned with the Storm Scanner (Amersham Pharmacia Biotech, Inc., Piscataway, N.J.) or imaged with ChemiDoc MP imaging system (Bio-Rad, Hercules, Calif.). For cytokine induction of STAT3 phosphorylation, MCF-7 breast cancer cells were seeded in 10 cm plates (1 million cells per plate) and allowed to adhere overnight followed by serum-starvation. […] After designated hours, LLM-418 treated and untreated cells were stimulated by IL-6, LIF, and OSM (50 ng/mL). The cells were harvested after 30 minutes and analyzed by Western blot.
MCF7 breast cancer cells were seeded in 10 cm plates (1 million cells per plate) and allowed to adhere overnight. The following day, the cells were serum-starved. The cells were then left untreated or treated with LLM4 (5-20 μM). After designated hours, the LLM4 treated and untreated cells were stimulated by IL-6, LIF, OSM, CNTF, CT-1, IL-11, IL-4 or INF-γ (50 ng/ml). The cells were harvested after 30 minutes and analyzed by western blotting.

Series [5] has as its system tert-immortalized human mammaryepithelial cells (HMEC-tert). Kind of series: Cell viability of normal cells HMEC-tert vs SUM159. The class given is cell-based. The settings on record: 0.25-10 μM, 48 hours. As for the experimental part:
as §2
To examine whether the novel compounds show cytotoxicity to normal cells, cell viability was also measured when the normal cell line tert-immortalized human mammaryepithelial cells (HMEC-tert) [Yang H, Pinello C E, Luo J, et al. Small-molecule inhibitors of acetyltransferase p300 identified by high-throughput screening are potent anticancer agents. […]

The mark [6] stands for this setting: MCF7, 1-4 μM, 5 h, IL-6 50 ng/ml.

Molecules are shown by their SMILES.

Usually IC50 stands for the concentration at which inhibition is half-maximal. A high value points to lower potency. As to `O=C(Nc1cc(F)ccc1-n1cccc1)c1ccc(OCCCN2CCCCC2)cc1` [LLM4, N-(5-fluoro-2-(1H-pyrrol-1-yl)phenyl)-4-(3-(piperidin-1-yl)propoxy)benzamide], the IC50 in series [1] (BXPC-3, 48 h) turned out to be 10900 ± 5700 nM; in series [1] (BxPC-3, text b401), 3900 nM; in series [2] (SUM159, 48 h), 14500 ± 3500 nM; in series [2] (SUM159, SUM159 human breast cancer cell line, MTT), 17000 ± 5500 nM; in series [3], 10900 ± 1500 nM. Besides, in series [4] (MCF7, 15 μM, 2, 3 and 4 hours), the “inhibition of IL-6 induced STAT3 phosphorylation” value is recorded as “inhibit IL-6 induced STAT3 phosphorylation quite effectively”. Further, the “inhibition of STAT3 phosphorylation induced by IL-6” value in series [4] (MCF7, 20 μM) is given as “almost complete inhibition”. In series [4] (MCF7, 5-20 μM, 5 h, IL-6 50 ng/ml, western blot), the “amount of P-STAT3 stimulated by IL-6” value is given as “decreased with increasing concentrations”. For the same compound, the “phosphorylation of STAT3 induced by IL-6” value in series [4] (MCF7, treatment with 10 LLM4) is recorded as “Significant reduction”.

For `O=C(Nc1cccc(OCCN2CCCCC2)c1)Nc1cccc(-c2ccn[nH]2)c1` [LLM414, 1-(3-(1H-pyrazol-5-yl)phenyl)-3-(3-(2-(piperidin-1-yl)ethoxy)phenyl)urea], the “inhibitory effect compared to parent compound LLM4” value in series [1] is recorded as “greater inhibitory effect”; in series [2], “greater inhibitory effect”; in series [3] it was “greater inhibitory effects”. The 50% inhibitory concentration (IC50) amounted to 8300 nM in series [1] (BXPC-3, 48 h); 8300 nM in series [1] (BxPC-3, Table 7); 2800 nM in series [2] (SUM159, 48 h); 2800 nM in series [2] (SUM159, SUM159, Table 7); 1900 nM in series [3]. The “inhibition of IL-6 induced STAT3 phosphorylation” value in series [4] (setting [6]) is on record as “inhibited STAT3 phosphorylation stimulated by IL-6 in MCF7 cells in a dose dependent manner”. In addition, the “differential cytotoxic effects to HMEC-tert and SUM159 cells” value in series [5] is “selectively kill cancer cells”.

With `O=C(Nc1ccccc1-c1ccn[nH]1)c1ccc(OCCN2CCCCC2)cc1` [LLM418, N-(2-(1H-pyrazol-5-yl)phenyl)-4-(2-(piperidin-1-yl)ethoxy)benzamide], the results for the “inhibitory effect compared to parent compound LLM4” value in series [1], in series [2] and in series [3] were “greater inhibitory effect”, “greater inhibitory effect” and “greater inhibitory effects”, respectively. Further, the half-inhibitory concentration (IC50) in series [1] (BXPC-3, 48 h) was 1200 nM; in series [1] (BxPC-3, Table 7), 1200 nM; in series [2] (SUM159, 48 h) it was 1700 nM; in series [2] (SUM159, SUM159, Table 7), 1700 nM; in series [3], 1200 nM. Moreover, the “inhibition of IL-6 induced STAT3 phosphorylation” value was “inhibit IL-6 induced STAT3 phosphorylation quite effectively” in series [4] (MCF7, 4 μM, 2, 3 and 4 hours); “inhibited STAT3 phosphorylation stimulated by IL-6 in MCF7 cells in a dose dependent manner” in series [4] (setting [6]). Also, the “differential cytotoxic effects to HMEC-tert and SUM159 cells” value in series [5] is given as “selectively kill cancer cells”.
